# Target: T1, GIRK2 (Homo sapiens, UniProt P48051)
# T1 construct: expressed in transfected cells; host or cells: HEK-293
# T1 sequence (P48051 1-423): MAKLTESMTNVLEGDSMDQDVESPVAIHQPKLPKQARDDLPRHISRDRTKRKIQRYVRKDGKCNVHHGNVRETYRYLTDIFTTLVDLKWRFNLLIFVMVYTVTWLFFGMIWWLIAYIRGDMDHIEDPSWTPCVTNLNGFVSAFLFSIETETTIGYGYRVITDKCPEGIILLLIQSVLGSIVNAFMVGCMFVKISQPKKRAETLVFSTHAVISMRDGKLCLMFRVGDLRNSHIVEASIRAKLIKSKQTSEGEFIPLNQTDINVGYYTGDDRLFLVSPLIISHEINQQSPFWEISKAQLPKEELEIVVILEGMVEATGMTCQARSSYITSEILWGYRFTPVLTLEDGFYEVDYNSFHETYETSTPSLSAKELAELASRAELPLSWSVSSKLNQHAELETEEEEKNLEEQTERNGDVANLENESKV
# Assay: Whole-cell voltage-clamp, GIRK2-expressing HEK-293 cells
# Assay type: cell-based
# Settings: cell line GIRK2
# Text: Cell Line Construction and Cell Culture. HEK-293 cells co-expressing human GIRK1/2 and rat mGlu8 were generated as previously described (Niswender et al., 2008). A HEK-293 cell line (ATCC, Manassas, Va.) expressing human GIRK1 and human GIRK2 was constructed by transfecting HEK-293 cells with GIRK1 and GIRK2 (Origene, Rockville, Md.) cloned into the pBudCE4.1 vector (Life Technologies, Carlsbad, Calif.) using FuGene 6 (Promega, Madison, Wis.) transfection reagent. […]
# A single-cell suspension of HEK-293 cells stably transfected with the appropriate ion channels were plated into TC-treated 35 mm polystyrene dishes at ˜15% confluence and incubated overnight in a 5% CO2 cell culture incubator at 37° C. […] Whole cell currents were recorded in 20K extracellular solution at −70 mV using a Pico 1 amplifier (Tecella, Foothill Ranch, Calif.) controlled by WINWCP 4.X (University of Strathclyde, Glasgow, Scotland, UK). […] One day after transfection, cells were plate into 35 mm polystyrene dishes, incubated and recorded as described above. […]
# Voltage-clamp data were analyzed by converting current amplitudes to current density by dividing by each cell's membrane capacitance estimated from capacitance compensation. […]
compound,measurement,value
"Cc1cc(NC(=O)Nc2ccc(F)c(F)c2)n(-c2ccccc2)n1 [VU0456810, 1-(3,4-difluorophenyl)-3-(3-methyl-1-phenyl-1H-pyrazol-5-yl)urea]",EC50 Voltage Clamp,Inactive
